Laboratory results from patent publication US7862837B2, “Herbal composition” (Piramal Life Sciences Limited, priority 2006, dated 2011).
Values after ≈ are worked out from the molar mass of the structure shown.

Legend:
interleukin-1β (IL-1β) = assay: IL-1β released by LPS-stimulated hPBMCs (ELISA); assay type: cell-based, human
Description: (§1) TNF-α production by lipopolysaccharides (LPS) in hPBMCs was measured according to the method described by Jansky, L. et al (Physiol. Res. 52: 593-598, (2003)). Blood was collected from healthy donors into Ethylene diamine tetra acetic acid Potassium salt (Potassium EDTA) vacutainer tubes (BD vacutainer). The PBMCs were isolated using gradient centrifugation in Histopaque-1077 solution (Sigma). Isolated PBMCs were suspended in Roswell Park Memorial Institute (RPMI) 1640 culture medium (Gibco BRL, Pasley, UK) containing 10% fetal bovine serum (FBS) (Hyclone, Utah, USA), 100 U/ml penicillin (Sigma Chemical Co. St Louis, Mo.) and 100 μg/ml streptomycin (Sigma Chemical Co. St Louis, Mo.). The cell concentration was adjusted to 1×10^6 cells/ml. The viability as determined by trypan blue dye exclusion was uniformly ≧98%. The cell suspension (100 μl) was added to the wells of a 96-well culture plate. […] Percent cytotoxicity of the test compound compared to control is evaluated.
The effect of the plant extract on the proinflammatory cytokines: interleukin-1β (IL-1β), interleukin-6 (IL-6) and interleukin-8 (IL-8) was measured using the supernatants generated in the primary screening assay. […]

TNF-α = assay: LPS-induced TNF-α production in hPBMCs (primary screening, ELISA); assay type: cell-based, human; conditions: LPS-stimulated hPBMCs
Description: TNF-α production by lipopolysaccharides (LPS) in hPBMCs was measured according to the method described by Jansky, L. et al (Physiol. Res. 52: 593-598, (2003)). Blood was collected from healthy donors into Ethylene diamine tetra acetic acid Potassium salt (Potassium EDTA) vacutainer tubes (BD vacutainer). The PBMCs were isolated using gradient centrifugation in Histopaque-1077 solution (Sigma). Isolated PBMCs were suspended in Roswell Park Memorial Institute (RPMI) 1640 culture medium (Gibco BRL, Pasley, UK) containing 10% fetal bovine serum (FBS) (Hyclone, Utah, USA), 100 U/ml penicillin (Sigma Chemical Co. St Louis, Mo.) and 100 μg/ml streptomycin (Sigma Chemical Co. St Louis, Mo.). The cell concentration was adjusted to 1×10^6 cells/ml. The viability as determined by trypan blue dye exclusion was uniformly ≧98%. The cell suspension (100 μl) was added to the wells of a 96-well culture plate. Following cell plating, 79 μl of the culture medium and 1 μl of eight different concentrations of the test compounds (final concentration 0.03, 0.1, 0.3, 1, 3, 10, 30, 100 μg/ml) dissolved in dimethylsulfoxide, (DMSO) Sigma, Mo., USA) were added to the cells. The final concentration of DMSO was adjusted to 0.5%. The vehicle (0.5% DMSO) was used as control. Rolipram (100, 300 μM) was used as a standard. The plates were incubated for 30 min at 37° C. in an atmosphere of 5% carbon dioxide (CO2). Finally, 20 μl (10 μg/ml) per well of LPS, (Escherchia coli 0127:B8, Sigma Chemical Co., St. Louis, Mo.) was added, for a final concentration of 1 μg/ml. The plates were incubated at 37° C. for 5 h in an atmosphere of 5% carbon dioxide (CO2). To assess the cytotoxic effect of the plant extracts, the cellular viability test was performed using 3-(4,5-dimethylthiazol-2-yl)-5-(3-carboxymethoxyphenyl)-2-(4-sulfonyl)-2H-tetrazolium) (MTS) reagent after 5 h of incubation. Supernatants were harvested and assayed for TNF-α by ELISA as described by the manufacturer (OptiElA ELISA sets, BD Biosciences, Pharmingen). […] Percent cytotoxicity of the test compound compared to control is evaluated.

[1] = tested on: human peripheral blood mononuclear cells; assay: Cellular viability test (MTS) in hPBMCs; assay type: cell-based
Description: as §1, with “plate. Following cell plating, 79 μl of the culture medium and 1 μl of eight different concentrations of the test compounds (final concentration 0.03, 0.1, 0.3, 1, 3, 10, 30, 100 μg/ml) dissolved in dimethylsulfoxide, (DMSO) Sigma, Mo., USA) were added to the cells. The final concentration of DMSO was adjusted to 0.5%. The vehicle (0.5% DMSO) was used as control. Rolipram (100, 300 μM) was used as a standard.” for “plate.”

CC1=CCCC2C1(C)CCC(C)C2(C)CCC1=CC(=O)OC1O (stereo not drawn) [Compound 1, 16-hydroxycleroda-3,13(14)-dien-15,16-olide]
IC50 against IL-1 (interleukin-1β (IL-1β)): 0.4 µg/mL (≈ 1.26 µM)
IC50, TNF-α inhibition (TNF-α): 5.9 µg/mL (≈ 18.5 µM)

COc1ccc(C2CNC(=O)C2)cc1OC1CCCC1 (stereo not drawn) [Rolipram]
inhibition at 100 µM (TNF-α; Homo sapiens, 100 μM, read-out: % Inhibition of TNF-α release): 100%
inhibition at 300 µM (TNF-α; Homo sapiens, 300 μM, read-out: % Inhibition of TNF-α release): 100%
% Toxicity 5 h ([1]; 100 μM): 2%
% Toxicity 5 h ([1]; 300 μM): 10%
